According to patent US7220554B2, “Methods for identifying inhibitors” (priority 2003, dated 2007):
Entries after “also recorded” stand apart in the source; their conditions may differ. Non-standard residues stand in square brackets, D forms with d. Residues, ends and D or L forms follow the SMILES beside them. *: point of attachment. Nle = CCCC[C@H](N)C(=O)O; Cbz = O=C(OCc1ccccc1)*; OtBu = CC(C)(C)O*

How the values were obtained:
[1] = system: Vif-dependent down modulation of APOBEC3G-Myc; assay: Western immunoblotting of APOBEC3G-Myc in cotransfected 293T cultures that contain or lack Vif; type: cell-based, human; conditions: for quantity of APOBEC3G-Myc in the cultures that contained Vif: incubated 10 hours, FIG. 11A
From the text: (§1) Expression vectors: pHIV-gpt(wt) and its derivative pHIV-gpt(Δvif) were previously described (Madani & Kabat, J. Virol. 72, 10251–10255, 1998; Page et al., J Virol 64, 5270–5276, 1990; Madani & Kabat, J. Virol. 74, 5982–5987, 2000). pcDNA3.1-Vif was donated by D. Gabuzda (Dana-Farber Cancer Institute, Harvard, Boston, Mass.). Rev-dependent plasmids for expression of the Vif mutants Δ2, Δ5, Δ6, Δ7, Δ9, Δ10, Δ12 and Δ13 (Simon et al., J. Virol. 73, 2675–2681, 1999) were provided by M. Malim (Medical Research Council, Cambridge, UK) and were coexpressed with pHIV-gpt(Δvif). APOBEC3G cDNA was cloned from H9 cells (nonpermissive) by reverse transcriptase-PCR (Barnes, Proc. Natl. Acad. Sci. USA 91, 2216–2220, 1994; Sambrook et al., Molecular Cloning. A Laboratory Manual, Chapter 14, 14.5–14.34., CSHL Press, Cold Spring Harbor, 1989) using primers complementary to the 5′ and 3′ ends of APOBEC3G coding region (Sheehy et al., Nature 418, 646–650, 2002) (upstream primer, 5′-[…]-3′ (SEQ ID NO: 15) containing an XhoI restriction site [underlined]; downstream primer, 5′-[…]-3′ (SEQ ID NO: 16) containing a SfuI restriction site [underlined]). The cDNA was cloned between XhoI and SfuI into the pcDNA3.1/Myc-His C mammalian expression vector (Invitrogen) to obtain the pcDNA3.1-APOBEC3G-Myc vector. The pSVIIIEnv vector was used to pseudotype HIV-gpt virions (Helseth et al., J. Virol. 64, 2416–2420, 1990). Transfections employed PolyFect reagent (Qiagen, Inc.) according to the manufacturer's instructions, with equimolar ratios of all plasmids and with harvests after 36 hours unless otherwise mentioned. Viruses: HIV-gpt virions were produced and titered as previously described (Page et al., J Virol 64, 5270–5276, 1990; Page et al., J Virol 66, 524–533, 1992; Platt et al., J. Virol. 75, 12266–12278, 2001). For viral purifications, 27 ml of the virus-containing media from 293T cells were pelleted through 2 ml of a 20% sucrose at 100,000 g for 1.5 hours. Virions were resuspended in TSE (0.1 M NaCl, 1 mM EDTA, 0.01M Tris-Cl, pH 7.4), and centrifuged to equilibrium in 5 ml 20–60% sucrose gradients in TSE at 200,000 g for 2.5 hours. Virus-containing fractions were detected by immunoblotting using HIV Immunoglobulin serum (AIDS Research & Reference Reagent Program, Division of AIDS, NIAID, NIH: contributed by NABI and NHLBI). Peak fractions were pooled, diluted with TSE, and pelleted through 20% sucrose at 100,000 g for two hours. Analysis of proteins and RNAs: Extracts of cotransfected 293T and COS7 cultures were prepared using either TX (1% Triton X-100, 150 mM NaCl, 10 mM Tris-Cl, pH 7.5, 1 mM MgCl) or RIPA (50 mM Tris-Ci pH 7.4, 1% Nonidet P40, 0.1% sodium deoxycholate, 150 mM NaCl) buffers with complete protease inhibitors (Roche), followed by centrifugation at 1,500 g for 5 minutes to sediment nuclei. Extracts were adjusted to equivalent protein concentrations using the Bradford reagent (BioRad Laboratories), and equal aliquots were then used for Western immunoblotting (Marin et al., J. Virol. 74, 8085–8093, 2000) or for immunoprecipitations (Klippel et al., Mol. Cell. Biol. 14, 2675–2685, 1994) using the antibodies HIV-1 HXB2 Vif rabbit antiserum #2221, (AIDS Research and Reference Reagent Program, Division of AIDS, NIAID, NIH: contributed by Dr. D. Gabuzda), Myc-specific monoclonal antibody clone 9E10 (Sigma) (Marin et al., J. Virol. 74, 8085–8093, 2000), or the ubiquitin-specific mouse monoclonal antibody (Zymed). […] Where indicated, cultures were preincubated with 50 μM concentrations of the proteasome inhibitors ALLN, MG-132, or Proteasome Inhibitor-I (Calbiochem).

[2] = system: total cellular polyubiquitinated proteins; assay: Western blot of total cell culture extracts with ubiquitin-specific antibody; type: cell-based, human; conditions: 293T; for amounts of total polyubiquitinated proteins (inhibitor activity in cultures with and without Vif): 50 μM inhibitor; for quantities of total cellular polyubiquitinated proteins (inhibitor activity in both cultures): preincubated 6 hours, FIG. 9B
From the text: as §1

APOBEC3G-Myc = assay: Immunofluorescence microscopy of Vif and APOBEC3G-Myc in cotransfected COS7 cells; type: cell-based, African green monkey; conditions: ALLN in DMSO, FIG. 5B
Procedure: For immunofluorescence, COS7 cells were used because they are more adherent than 293T cells. Cells cultured in Permanox chamber slides (Nalge Nunc International) were fixed in 5% formaldehyde and 2% sucrose in PBS (Invitrogen) at room temperature for 20 minutes, and permeabilized with 1% Triton X-100 in PBS with 10% sucrose for 30 minutes. Primary antibodies were Vif antiserum #2221 or the Myc-specific monoclonal antibody 9E10. Secondary fluorescent antibodies were Alexa Fluor 488 goat anti-rabbit IgG(H+L) and Alexa Fluor 594 goat anti-mouse IgG (H+L) (Molecular Probes Inc), which reacted only with their species-specific primary antibodies. Slides were mounted in FluoroGuard (BioRad Laboratories), and observed with a Zeiss Axiovert 200M deconvolution microscope. The percentage of double-positive cells in FIG. 5B is defined as the percentage of the Vif-positive cells and that contained APOBEC3G-Myc. RNA extraction and Northern blot analyses were previously described (Tailor et al., Proc. Natl. Acad. Sci. USA 96, 927–932, 1999). A cDNA probe for the S2 ribosomal protein was used as a loading control.

[3] = system: polyubiquitinated APOBEC3G; assay: Ni-NTA purification of APOBEC3G-Myc in 8M urea and immunoblotting with ubiquitin-specific antibody; type: cell-based, human; conditions: 293T; ALLN 10 hours; FIG. 11B
From the text: Expression vectors: pHIV-gpt(wt) and its derivative pHIV-gpt(Δvif) were previously described (Madani & Kabat, J. Virol. 72, 10251–10255, 1998; Page et al., J Virol 64, 5270–5276, 1990; Madani & Kabat, J. Virol. 74, 5982–5987, 2000). pcDNA3.1-Vif was donated by D. Gabuzda (Dana-Farber Cancer Institute, Harvard, Boston, Mass.). Rev-dependent plasmids for expression of the Vif mutants Δ2, Δ5, Δ6, Δ7, Δ9, Δ10, Δ12 and Δ13 (Simon et al., J. Virol. 73, 2675–2681, 1999) were provided by M. Malim (Medical Research Council, Cambridge, UK) and were coexpressed with pHIV-gpt(Δvif). APOBEC3G cDNA was cloned from H9 cells (nonpermissive) by reverse transcriptase-PCR (Barnes, Proc. Natl. Acad. Sci. USA 91, 2216–2220, 1994; Sambrook et al., Molecular Cloning. A Laboratory Manual, Chapter 14, 14.5–14.34., CSHL Press, Cold Spring Harbor, 1989) using primers complementary to the 5′ and 3′ ends of APOBEC3G coding region (Sheehy et al., Nature 418, 646–650, 2002) (upstream primer, 5′-[…]-3′ (SEQ ID NO: 15) containing an XhoI restriction site [underlined]; downstream primer, 5′-[…]-3′ (SEQ ID NO: 16) containing a SfuI restriction site [underlined]). […] Virus-containing fractions were detected by immunoblotting using HIV Immunoglobulin serum (AIDS Research & Reference Reagent Program, Division of AIDS, NIAID, NIH: contributed by NABI and NHLBI). […]

[4] = system: Vif-mediated elimination of YFP-APOBEC3G; assay: Fluorescence of YFP-APOBEC3G in 293T cultures cotransfected with Vif; type: cell-based, human; conditions: ALLN for eight hours
From the text: Using methods essentially similar to those described in Example 1, a vector was constructed that encodes a chimeric protein containing the yellow fluorescent protein (YFP) at the amino terminus and APOBEC3G at the carboxyl terminus (YFP-APOBEC3G; SEQ ID NOs: 3 and 4). Cotransfection of plasmids that encode this chimera and Vif into human 293T cell cultures results in only a few fluorescent cells, consistent with a Vif-induced degradation (FIG. 13A, top two panels). In contrast, cotransfection with a vector lacking Vif results in a much larger fraction of fluorescent cells.

Row | Compound | control protein α-tubulin ([1]; 50 μM inhibitor, 6–10 hour) | quantities of APOBEC3G-Myc in the cultures that contained Vif ([1]; 50 μM inhibitor, 6–10 hour) | quantities of APOBEC3G-Myc in the cultures that lacked Vif ([1]; 50 μM inhibitor, 6–10 hour) | quantity of APOBEC3G-Myc in the cultures that contained Vif [1] | quantities of APOBEC3G-Myc in the cultures that contained Vif ([1]; preincubated 6 hours, FIG. 9B) | quantities of APOBEC3G-Myc in the cultures that lacked Vif ([1]; preincubated 6 hours, FIG. 9B) | amounts of total polyubiquitinated proteins (inhibitor activity in cultures with and without Vif) [2] | quantities of total cellular polyubiquitinated proteins (inhibitor activity in both cultures) [2] | percentage of cells that coexpressed wild-type Vif and APOBEC3G-Myc (APOBEC3G-Myc) | amount of polyubiquitinated APOBEC3G-Myc, effect of proteasome inhibitor [3] | cells with YFP-APOBEC3G fluorescence in the culture that contains Vif [4]
1 | CCCC[C@@H](C=O)NC(=O)[C@H](CC(C)C)NC(=O)[C@H](CC(C)C)NC(C)=O [ALLN] (Ac-Leu-Leu-[Nle]-aldehyde) | no effect | increased the quantities of APOBEC3G-Myc | not in the cultures that lacked Vif | increased the quantity of APOBEC3G-Myc | increased the quantities of APOBEC3G-Myc | not in the cultures that lacked Vif | active in both cultures | active in both cultures | dramatic increase in coexpression; also recorded: this decrease was alleviated by ALLN | substantially increased; also recorded: greatly increased | reverses the Vif-dependent elimination of the chimeric protein; also recorded: blocks Vif-mediated elimination of YFP-APOBEC3G; also recorded: accumulate in many more cells
2 | CC(C)C[C@@H](C=O)NC(=O)[C@H](CC(C)C)NC(=O)[C@H](CC(C)C)NC(=O)OCc1ccccc1 [MG-132] (Cbz-Leu-Leu-Leu-aldehyde) | no effect | increased the quantities of APOBEC3G-Myc | not in the cultures that lacked Vif | increased the quantity of APOBEC3G-Myc | increased the quantities of APOBEC3G-Myc | not in the cultures that lacked Vif | active in both cultures | active in both cultures |  |  | 
3 | CC[C@H](C)[C@H](NC(=O)OCc1ccccc1)C(=O)N[C@@H](CCC(=O)OC(C)(C)C)C(=O)N[C@@H](C)C(=O)N[C@H](C=O)CC(C)C [Proteasome Inhibitor-I] (Cbz-IE(OtBu)AL-aldehyde) | no effect | increased the quantities of APOBEC3G-Myc | not in the cultures that lacked Vif | increased the quantity of APOBEC3G-Myc | increased the quantities of APOBEC3G-Myc | not in the cultures that lacked Vif | active in both cultures | active in both cultures |  |  | 
